Data published in patent publication US5770617A, “Terbenzimidazoles useful as antifungal agents” (Rutgers, The State University of New Jersey, priority 1997, dated 1998).
“Also recorded” adds a separate entry of the source.

Biological target: T1, Aspergillus topoisomerase I (Aspergillus nidulans, UniProt Q5BGS7)
T1 construct: about 105 kDa by phosphate transfer
T1 sequence (Q5BGS7 1-871): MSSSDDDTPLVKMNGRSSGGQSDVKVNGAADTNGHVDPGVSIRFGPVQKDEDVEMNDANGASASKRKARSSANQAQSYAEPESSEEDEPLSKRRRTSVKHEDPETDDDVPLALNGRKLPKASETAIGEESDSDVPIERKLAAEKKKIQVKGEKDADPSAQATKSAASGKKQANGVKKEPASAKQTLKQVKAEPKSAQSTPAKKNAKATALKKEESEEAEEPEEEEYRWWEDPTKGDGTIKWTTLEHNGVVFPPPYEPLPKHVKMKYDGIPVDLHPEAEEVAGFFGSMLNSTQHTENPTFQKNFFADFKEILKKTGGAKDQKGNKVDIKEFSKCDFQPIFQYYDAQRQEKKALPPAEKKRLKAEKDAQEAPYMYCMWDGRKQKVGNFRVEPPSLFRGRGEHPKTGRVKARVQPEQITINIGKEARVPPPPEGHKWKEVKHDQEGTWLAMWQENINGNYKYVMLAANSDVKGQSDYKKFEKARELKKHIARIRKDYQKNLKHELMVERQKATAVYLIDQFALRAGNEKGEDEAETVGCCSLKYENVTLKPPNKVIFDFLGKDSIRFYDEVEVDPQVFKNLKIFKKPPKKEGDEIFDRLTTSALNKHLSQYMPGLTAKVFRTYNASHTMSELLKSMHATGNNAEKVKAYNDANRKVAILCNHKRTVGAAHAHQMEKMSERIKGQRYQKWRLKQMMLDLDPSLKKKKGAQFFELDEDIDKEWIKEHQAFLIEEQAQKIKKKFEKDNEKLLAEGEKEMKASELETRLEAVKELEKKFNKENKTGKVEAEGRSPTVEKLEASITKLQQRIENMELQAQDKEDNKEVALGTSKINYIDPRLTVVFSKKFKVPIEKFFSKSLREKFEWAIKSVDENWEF
Assay: Topoisomerase I cleavage assay, Aspergillus enzyme
Assay type: biochemical
Details: for inhibition (poisoning) of Aspergillus topoisomerase I, in words: DNA cleavage assay; for sensitivity of Aspergillus versus human topoisomerase I: cleavage assay, Aspergillus 60 units/reaction, human 150 units/reaction; for concentration at which extensive DNA cleavage was observed: DNA cleavage with Aspergillus topoisomerase I

SMILES | inhibition (poisoning) of Aspergillus topoisomerase I, in words | sensitivity of Aspergillus versus human topoisomerase I | inhibition (poisoning) of Aspergillus topoisomerase I, in words (listed as Ho33342) | concentration at which extensive DNA cleavage was observed [mg/mL] | topoisomerase I-mediated DNA cleavage at the highest concentration (Ho33342 10 mg/ml) | sensitivity of Aspergillus versus human topoisomerase I (listed as CPT)
N#Cc1ccc2[nH]c(-c3ccc4[nH]c(-c5ccc6[nH]cnc6c5)nc4c3)nc2c1 [Compound 11, 5-Cyano-2-[2'-(benzimidazol-5"-yl)benzimidazol-5'-yl]benzimidazole] | strongly inhibited (poisoned); also recorded: sensitive | more active against the Aspergillus than the human enzyme |  |  |  | 
c1ccc(-c2ccc3[nH]c(-c4ccc5[nH]c(-c6ccc7[nH]cnc7c6)nc5c4)nc3c2)cc1 [Compound 13, 5-Phenyl-2-[2'(benzimidazol-5"-yl)benzimidazol-5'-yl]benzimidazole] | strongly inhibited (poisoned); also recorded: sensitive | substantially more sensitive |  |  |  | 
CCOc1ccc(-c2nc3cc(-c4nc5cc(N6CCN(C)CC6)ccc5[nH]4)ccc3[nH]2)cc1 [Hoechst 33342, 2'-(4-ethoxyphenyl)-5-(4-methyl-1-piperazinyl)-2,5'-bi-1H-benzimidazole] |  |  | potent inhibitors; also recorded: selective sensitivity; also recorded: sensitive | ≤ 0.1 | dramatically inhibited | 
CC[C@@]1(O)C(=O)OCc2c1cc1n(c2=O)Cc2cc3ccccc3nc2-1 [camptothecin] | potent inhibitors; also recorded: sensitive | less active against the Aspergillus than the human enzyme |  | ≤ 1.0 |  | less sensitive to CPT than the human enzyme
